Source: ChEMBL document CHEMBL1201862, “PubChem BioAssay data set” (2004)
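Cells were grown in 96-well plates and exposed to each compound for 48 hours at five concentrations; endpoints were interpolated linearly between bracketing concentrations, or set to the highest concentration if not reached. GI50 is the concentration that inhibits growth by half.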 The source made the active and inactive calls. Cut-off read from the data, not from the text of the source: active = GI50 up to about 1.1 µM and inactive = higher.

How the values were obtained:
Experiment in all cases: NCI anticancer screen, dose series, 48 h
CCRF-CEM = tested on: CCRF-CEM
DU-145 = tested on: DU-145
HT-29 = tested on: HT-29
KM12 = tested on: KM12
LOX IMVI = tested on: LOX IMVI
Malme-3M = tested on: Malme-3M
NCI-H23 = tested on: NCI-H23
PC-3 = tested on: PC-3
RXF 393 = tested on: RXF 393
SF-268 = tested on: SF-268
SF-295 = tested on: SF-295
SF-539 = tested on: SF-539
SNB-75 = tested on: SNB-75
SR = tested on: SR
SW-620 = tested on: SW-620
U-251 = tested on: U-251
UACC-62 = tested on: UACC-62
UO-31 = tested on: UO-31
A549 = tested on: A549
Hs-578T = tested on: Hs-578T

Row | SMILES | GI50 (CCRF-CEM) | GI50 (DU-145) | GI50 (HT-29) | GI50 (KM12) | GI50 (LOX IMVI) | GI50 (Malme-3M) | GI50 (NCI-H23) | GI50 (PC-3) | GI50 (RXF 393) | GI50 (SF-268) | GI50 (SF-295) | GI50 (SF-539) | GI50 (SNB-75) | GI50 (SR) | GI50 (SW-620) | GI50 (U-251) | GI50 (UACC-62) | GI50 (UO-31) | GI50 (A549) | GI50 (Hs-578T)
1 | Cc1ccc(C2CC(=O)CC(c3ccc(C)cc3)C23C(=O)NC(=O)NC3=O)cc1 (configuration not stated) | > 100 µM (inactive) | > 100 µM (inactive) | > 100 µM (inactive) | > 100 µM (inactive) | > 100 µM (inactive) | > 100 µM (inactive) | > 100 µM (inactive) | > 100 µM (inactive) | > 100 µM (inactive) | > 100 µM (inactive) | > 100 µM (inactive) | > 100 µM (inactive) | > 100 µM (inactive) | 60.1 µM (inactive) | > 100 µM (inactive) | > 100 µM (inactive) | > 100 µM (inactive) | > 100 µM (inactive) | – | –
2 | O=C1OC[C@@H]2Cc3cc4c(cc3[C@H](c3ccc5c(c3)OCO5)[C@@H]12)OCO4 | > 25 µM (inactive) | > 25 µM (inactive) | 24.1 µM (inactive) | > 25 µM (inactive) | > 25 µM (inactive) | > 25 µM (inactive) | > 25 µM (inactive) | – | – | – | 24.7 µM (inactive) | – | – | 24 µM (inactive) | – | > 25 µM (inactive) | – | 15.6 µM (inactive) | > 25 µM (inactive) | –
3 | CC(C)(C)C1CCN(C(=O)c2ccccc2)CC1 | > 100 µM (inactive) | – | > 100 µM (inactive) | > 100 µM (inactive) | > 100 µM (inactive) | 43.6 µM (inactive) | > 100 µM (inactive) | – | 76 µM (inactive) | – | > 100 µM (inactive) | > 100 µM (inactive) | 69 µM (inactive) | 64.6 µM (inactive) | > 100 µM (inactive) | > 100 µM (inactive) | > 100 µM (inactive) | > 100 µM (inactive) | 90.6 µM (inactive) | –
4 | O=c1[nH]c2cc([N+](=O)[O-])ccc2nc1/C(=N\NO)C(O)c1ccc([N+](=O)[O-])cc1 (configuration not stated) | 66.2 µM (inactive) | – | > 100 µM (inactive) | 65 µM (inactive) | 85.1 µM (inactive) | > 100 µM (inactive) | > 100 µM (inactive) | – | > 100 µM (inactive) | > 100 µM (inactive) | > 100 µM (inactive) | 31.3 µM (inactive) | > 100 µM (inactive) | > 100 µM (inactive) | > 100 µM (inactive) | > 100 µM (inactive) | 59.6 µM (inactive) | > 100 µM (inactive) | > 100 µM (inactive) | –
5 | CC12CC3CC/C(=N\O)C(C1)C3(N1CCOCC1)C/C2=N/O (configuration not stated) | > 100 µM (inactive) | > 100 µM (inactive) | > 100 µM (inactive) | > 100 µM (inactive) | > 100 µM (inactive) | > 100 µM (inactive) | > 100 µM (inactive) | > 100 µM (inactive) | > 100 µM (inactive) | > 100 µM (inactive) | > 100 µM (inactive) | > 100 µM (inactive) | 25.1 µM (inactive) | > 100 µM (inactive) | > 100 µM (inactive) | > 100 µM (inactive) | > 100 µM (inactive) | > 100 µM (inactive) | > 100 µM (inactive) | –
6 | CC1=C(C(=O)NNC(=O)CC#N)CC(C(=O)NNC(=O)CC#N)=C(C)N1 | – | > 100 µM (inactive) | > 100 µM (inactive) | > 100 µM (inactive) | > 100 µM (inactive) | – | > 100 µM (inactive) | – | > 100 µM (inactive) | > 100 µM (inactive) | > 100 µM (inactive) | > 100 µM (inactive) | > 100 µM (inactive) | – | > 100 µM (inactive) | > 100 µM (inactive) | – | > 100 µM (inactive) | > 100 µM (inactive) | –
7 | CC12CCC3(OCCO3)C(OC(=O)c3ccccc3)=C1CCC21OCCO1 (configuration not stated) | > 100 µM (inactive) | – | > 100 µM (inactive) | > 100 µM (inactive) | > 100 µM (inactive) | > 100 µM (inactive) | – | – | > 100 µM (inactive) | > 100 µM (inactive) | > 100 µM (inactive) | > 100 µM (inactive) | > 100 µM (inactive) | > 100 µM (inactive) | > 100 µM (inactive) | > 100 µM (inactive) | > 100 µM (inactive) | > 100 µM (inactive) | > 100 µM (inactive) | –
8 | NC(=O)OCC(COc1ccc(Cl)cc1)OC(=O)c1ccccc1Cl (configuration not stated) | 22.3 µM (inactive) | – | 17.6 µM (inactive) | 21.6 µM (inactive) | 13.8 µM (inactive) | 20.3 µM (inactive) | 20.5 µM (inactive) | – | 12.6 µM (inactive) | 24.8 µM (inactive) | 25.4 µM (inactive) | 19.1 µM (inactive) | 41.7 µM (inactive) | 25.6 µM (inactive) | 19 µM (inactive) | 14.1 µM (inactive) | 17.2 µM (inactive) | 22.3 µM (inactive) | 27.8 µM (inactive) | –
9 | CCC(CC)n1cc(C(=O)NC(=O)NCCCCCOC(=O)CCCCCCCCCCC(=O)OCCCCCNC(=O)NC(=O)c2cn(C(CC)CC)c(=O)[nH]c2=O)c(=O)[nH]c1=O | > 100 µM (inactive) | – | > 100 µM (inactive) | > 100 µM (inactive) | > 100 µM (inactive) | > 100 µM (inactive) | > 100 µM (inactive) | – | 29.1 µM (inactive) | > 100 µM (inactive) | > 100 µM (inactive) | 47.2 µM (inactive) | 22.8 µM (inactive) | > 100 µM (inactive) | > 100 µM (inactive) | 88.3 µM (inactive) | > 100 µM (inactive) | > 100 µM (inactive) | > 100 µM (inactive) | –
10 | CN1c2ccccc2C(=O)NC12CCNCC2 | > 100 µM (inactive) | > 100 µM (inactive) | > 100 µM (inactive) | > 100 µM (inactive) | > 100 µM (inactive) | > 100 µM (inactive) | > 100 µM (inactive) | – | > 100 µM (inactive) | > 100 µM (inactive) | > 100 µM (inactive) | > 100 µM (inactive) | > 100 µM (inactive) | > 100 µM (inactive) | > 100 µM (inactive) | > 100 µM (inactive) | > 100 µM (inactive) | > 100 µM (inactive) | > 100 µM (inactive) | 0.082 µM (active)
11 | COCNC(=NC#N)NCOC | > 100 µM (inactive) | – | > 100 µM (inactive) | > 52 µM (inactive) | > 41.7 µM (inactive) | > 100 µM (inactive) | > 100 µM (inactive) | – | > 42 µM (inactive) | > 100 µM (inactive) | > 100 µM (inactive) | > 100 µM (inactive) | > 100 µM (inactive) | 20.2 µM (inactive) | > 42.9 µM (inactive) | > 58.5 µM (inactive) | > 100 µM (inactive) | > 100 µM (inactive) | > 71.9 µM (inactive) | –
12 | CCCCNC(=S)Nc1nc(C(=O)NNS(=O)(=O)c2ccccc2)cs1 | 44.3 µM (inactive) | 35.5 µM (inactive) | > 10 µM (inactive) | 39.7 µM (inactive) | 19.4 µM (inactive) | 28.9 µM (inactive) | 44 µM (inactive) | 29 µM (inactive) | – | 27.8 µM (inactive) | 36.2 µM (inactive) | 33.6 µM (inactive) | 35.6 µM (inactive) | 41.1 µM (inactive) | – | 39.5 µM (inactive) | 22.9 µM (inactive) | 26.1 µM (inactive) | 40.3 µM (inactive) | –
13 | CCOC(=O)/C(=C\NC(C)(C)CO)c1nc2ccccc2[nH]1 | 35.6 µM (inactive) | > 100 µM (inactive) | 88.7 µM (inactive) | 75 µM (inactive) | > 100 µM (inactive) | > 100 µM (inactive) | 67.8 µM (inactive) | – | > 100 µM (inactive) | 81.5 µM (inactive) | 64.6 µM (inactive) | > 100 µM (inactive) | > 100 µM (inactive) | 47.3 µM (inactive) | > 100 µM (inactive) | – | 43.5 µM (inactive) | 0.426 µM (active) | 86.5 µM (inactive) | 34.4 µM (inactive)
14 | COC1C(OC(N)=O)C(O)C(Oc2ccc3c(O)c(NC(=O)c4ccc(O)c(CC=C(C)C)c4)c(=O)oc3c2C)OC1(C)C (configuration not stated) | 77.8 µM (inactive) | > 100 µM (inactive) | > 100 µM (inactive) | 63 µM (inactive) | – | > 100 µM (inactive) | – | > 100 µM (inactive) | > 100 µM (inactive) | > 100 µM (inactive) | – | > 100 µM (inactive) | > 100 µM (inactive) | 18.4 µM (inactive) | > 100 µM (inactive) | 99.5 µM (inactive) | 69.2 µM (inactive) | > 100 µM (inactive) | > 100 µM (inactive) | –
15 | O=c1c(-c2ccccc2)nnc2n(Cc3ccccc3)c3ccccc3n12 | > 100 µM (inactive) | > 100 µM (inactive) | > 100 µM (inactive) | > 100 µM (inactive) | > 100 µM (inactive) | > 100 µM (inactive) | > 100 µM (inactive) | – | 95.1 µM (inactive) | > 100 µM (inactive) | > 100 µM (inactive) | 94.8 µM (inactive) | > 100 µM (inactive) | > 100 µM (inactive) | > 100 µM (inactive) | > 100 µM (inactive) | – | > 100 µM (inactive) | > 100 µM (inactive) | > 100 µM (inactive)
16 | CC(C)(C)[C@H]1CC[C@@](O)(c2ccccc2)CC1.CC(C)(C)[C@H]1CC[C@](O)(c2ccccc2)CC1 | 26.5 µM (inactive) | – | 16.2 µM (inactive) | 22.8 µM (inactive) | 15.3 µM (inactive) | 29.9 µM (inactive) | 30.1 µM (inactive) | – | 18.6 µM (inactive) | – | 36.4 µM (inactive) | 18.1 µM (inactive) | 24.3 µM (inactive) | 15.2 µM (inactive) | 3.74 µM (inactive) | 16.3 µM (inactive) | 19.1 µM (inactive) | 31.5 µM (inactive) | 26 µM (inactive) | –
